From ChEMBL document CHEMBL1135287, “Anisylazoformylarginine: a superior assay substrate for carboxypeptidase B type enzymes” (Bioorg Med Chem Lett, 2002)

How the values were obtained:
Sus scrofa [1] = species: Sus scrofa; experiment: Specificity constant kcat/Km was obtained at pH of 7.9, 25 degree C by the porcine carboxypeptidase B
Sus scrofa [2] = species: Sus scrofa; experiment: Kinetic constant in the presence of porcine carboxypeptidase B

COc1ccc(/N=N/C(=O)N[C@@H](CCCN=C(N)N)C(=O)O)cc1
k cat/Km (Sus scrofa [1]): 1e+06 M⁻¹ s⁻¹
Km (Sus scrofa [2]): 44 µM
k cat (Sus scrofa [2]): 44 s⁻¹
